A word on the IC50: it is the point on the concentration scale where inhibition reaches its midpoint. For orientation: EC50 means the midpoint of the concentration-response curve.

In assay [1] the test system is A549 NSCLC cells. Description: Cellular cytotoxicity assay (Alamar Blue), A549. The assay is classed as cell-based. As to conditions: Homo sapiens, 72 h, upper end given as ≧100, read-out: IC50 (μM), cytotoxicity towards A549 NSCLC cells. In outline:
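Cells were dosed 24 h after seeding with semi-log compound dilutions in quadruplicate, then incubated 72 h at 37 °C, 5% CO2. Viability read by Resazurin reduction (4 h, fluorescence 544/590 nm) relative to untreated 0.5% DMSO controls; IC50 by non-linear regression.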
On the technique in general: Resazurin is reduced to fluorescent resorufin, in cell work by metabolically active cells.

Assay [2] deals with histone H3 hyperacetylation in HeLa cervical carcinoma cells. The assay is described as follows: Cellular histone H3 hyperacetylation assay. The assay is classed as cell-based. As to conditions: Homo sapiens, 24 h treatment. From the text: To assess the cellular efficacy of a histone deacetylase inhibitor in vitro, an assay is set up in black clear-bottom 96-well plates and optimized for use on the Cellomics “ArrayScan II” platform for a quantitative calculation of histone acetylation. The protocol uses a polyclonal rabbit antibody, specifically binding to acetylated lysine 1-20 (including K 9 and K14) of human histone H3 on fixed cells with an Alexa Fluor 488 labeled goat anti rabbit-IgG used for counterstaining 5×10^3 HeLa cervical carcinoma cells/well (ATCC CCL-2) in 200 μl Dulbecco's modified Eagle's medium (DMEM) containing 10% fetal calf serum are seeded at day 1 in Packard view plates and incubated for 24 h under standard cell culture conditions. On day 2, 1 μl test compound (200× final concentration) is added and incubation continued for further 24 h. On day 3, the culture medium is discarded and attached cells fixed for 15 min at room temperature by addition of 100 μl fixation buffer (3.7% v:v formaldehyde in phosphate buffered saline/PBS). After discarding the fixation buffer and one wash with blocking solution (1% BSA, 0.3% Tween 20 in PBS), cells are permeabilized at room temperature by addition of 100 μl /well permeabilization buffer (30.8 mM NaCl, 0.54 mM Na2HPO4, 0.31 mM KH2PO4, 0.1% v:v Triton X-100) for 15 min at room temperature. After discarding the permeabilization buffer and washing twice with 100 μl/well blocking solution at room temperature, the 1st antibody (anti-K1-20 histone H3 antibody, Calbiochem No. 382158) in blocking solution (50 μl/well) is added. After incubation for 1 h at room temperature, the wells are washed twice at room temperature with 100 μl/well blocking solution before addition of the 2nd antibody (goat-anti-rabbit Alexa Fluor 488; MoBiTec No. A -11008) in blocking solution (50 μl well). After further incubation for 1 h at room temperature, wells are washed twice with 100 μl/well blocking solution at room temperature. Finally, 100 μl/well PBS are added and image analysis performed on the Cellomics “ArrayScan II” platform. For EC50 determination, the percentage of positive cells showing nuclear fluorescence is determined and EC50 calculation done from concentration-effect curves by means of non-linear regression. For calibration, a positive (reference HDAC inhibitors like SAHA or NVP LBH-589) and a negative control were included.

For assay [3], the system named is A549 NSCLC cells. The assay is described as follows: Cell cycle analysis by flow cytometry. The format is cell-based, human. As to conditions: A549, 24 h treatment. The method, then: A549 NSCLC cells (ATTC CCL-185) are cultivated in DMEM with high glucose (supplemented with 10% FBS) at 5% CO2 and 37° C. in a humidified atmosphere under standard cell culture conditions. 24 h before compound treatment, cells are seeded at 5×10^4 cells/ml (=5×10^5 cells/10 cm cell culture dish) to allow logarithmic proliferation during the experiment. After 24 h, cells were treated with test compound or 0.5 vol % DMSO as a control. After 24 h and 48 h treatment, the culture medium is collected and detached, floating cells are collected by short centrifugation (5 min at 1200 rpm). Attached cells are washed once with 5 ml PBS, detached by treatment with 3 ml trypsin/EDTA solution (short incubation for 3-5 min) and—together with detached, floating cells—transferred into 15 ml Falcon tubes. The cell culture dish is washed with 10 ml DMEM to collect all remaining cells. After centrifugation for 5 min at 1200 rpm at room temperature, the supernatant is discarded and the cell pellet washed twice with 10 ml PBS. The supernatant is discarded, the cells resuspended in 4 ml ice-cold fixation solution (70 vol % ethanol, 30 vol % H2O; stored at −20° C.) and stored at −20° C. overnight. Next, 10 ml PBS (4° C.) is added to the cells, before centrifugation for 5 min at 1200 rpm (4° C.). The supernatant is discarded, the cell pellet washed once with 10 ml PBS (4° C.) and the cell pellet finally resuspended in about 1 ml staining solution (10 μg/ml RNAse A, 10 μg/ml propidiumiodide in PBS, final volume dependent on cell number). After incubation for 30 min at room temperature in the dark, cells are stored on ice and analyzed using the Becton Dickinson FACS Canto device. Analysis is done at an excitation of λ=488 nm with emission set as λ=600 nm.
Data analysis: Cells are analyzed according to size, granularity and propidiumiodide intensity. Size and granularity of cells are determined by measurement of forward scatter (FSC) and side scatter (SSC) of the λ=488 nm excitation light, respectively. To discriminate cells with 4N DNA content from cell doublets (two attached cells with 2N DNA content each), the ratio between the area under the propidiumiodide peak (PE-A) and the height of the propidiumiodide peak (PE-H) for each cell is determined. Cell doublets need more time to pass through the laser beam, which causes a broadening of the propidiumiodide peak and an increase of the ratio PE-A/PE-H. Using this analysis, cells in 4N and cell doublets appear as distinct clouds in a scatter plot and are excluded from the analysis. Thus, the area under the propidiumiodide peak at λ=600 nm (PE-A) is a measure for the DNA content of the cells. PE-A is blotted against the measured cell number in a histogram in order to determine the percentage of analyzed cells in an individual stage of the cell cycle.
(In general: Flow cytometry measures light scatter and fluorescence of single cells or particles in a stream.)

Setting [4] is: read-out: EC50, induction of histone H3 hyperacetylation.
The mark [5] stands for this setting: read-out: −lg EC50, induction of histone H3 hyperacetylation.

The structures appear in SMILES notation. Where two headings read alike, the source gives them in different places.

In the case of `COc1ccc(NC(=NC#N)N2CCc3nc(C(=O)Nc4ccccc4N)sc3C2)cc1` [Example 117, N-(2-aminophenyl)-5-{(cyanoimino)[(4-methoxyphenyl)amino]methyl}-4,5,6,7-tetrahydro[1,3]thiazolo[5,4-c]pyridine-2-carboxamide], the IC50 with A549 NSCLC cells [1] is not below 0.2 µM. Further, the EC50 is 150 to 15000 nM in assay [2] (setting [4]) and 251 to 15800 nM in assay [2] (setting [5]).
In the case of `Nc1ccccc1NC(=O)c1nc2c(s1)CN(C(=O)C=Cc1ccc3c(c1)OCO3)CC2` [Example 190, N-(2-aminophenyl)-5-[3-(1,3-benzodioxol-5-yl)prop-2-enoyl]-4,5,6,7-tetrahydro[1,3]thiazolo[5,4-c]pyridine-2-carboxamide], the IC50 with A549 NSCLC cells [1] was not below 0.2 µM. The values for the EC50 in assay [2] (setting [4]) and in assay [2] (setting [5]) were 150 to 15000 nM and 251 to 15800 nM, respectively.
For `Cc1ccc(NC(=O)N2CCc3nc(C(=O)Nc4ccccc4N)sc3C2)cc1` [Example 13, N^2-(2-aminophenyl)-N^5-(4-methylphenyl)-6,7-dihydro[1,3]thiazolo[5,4-c]-pyridine-2,5(4H)-dicarboxamide], the IC50 in the assay on A549 NSCLC cells [1] was not below 0.2 µM. Also, the EC50 was 150 to 15000 nM in assay [2] (setting [4]) and 251 to 15800 nM in assay [2] (setting [5]).
As for `COc1cccc(S(=O)(=O)N2CCc3nc(C(=O)Nc4ccccc4N)sc3C2)c1` [Example 160, N-(2-aminophenyl)-5-[(3-methoxyphenyl)sulfonyl]-4,5,6,7-tetrahydro[1,3]thiazolo[5,4-c]pyridine-2-carboxamide], in the assay on A549 NSCLC cells [1], the IC50 was not below 0.2 µM. Further, the EC50 was 150 to 15000 nM in assay [2] (setting [4]) and 251 to 15800 nM in assay [2] (setting [5]).
As for `COc1ccc(OCC(=O)N2CCc3nc(C(=O)Nc4ccccc4N)sc3C2)cc1` [Example 174, N-(2-aminophenyl)-5-[(4-methoxyphenoxy)acetyl]-4,5,6,7-tetrahydro[1,3]-thiazolo[5,4-c]pyridine-2-carboxamide], the IC50 in the assay with A549 NSCLC cells [1] was not below 0.2 µM. Besides, the EC50 in assay [2] (setting [4]) was 150 to 15000 nM; in assay [2] (setting [5]), 251 to 15800 nM.
As for `CS(=O)(=O)N1CCc2nc(C(=O)Nc3ccccc3N)sc2C1` [Example 154, N-(2-aminophenyl)-5-(methylsulfonyl)-4,5,6,7-tetrahydro[1,3]thiazolo[5,4-c]pyridine-2-carboxamide], in the assay with A549 NSCLC cells [1], the IC50 is not below 0.2 µM. Further, the EC50 in assay [2] (setting [4]) lay in the range of 150 to 15000 nM; in assay [2] (setting [5]), 251 to 15800 nM.
`Nc1ccccc1NC(=O)c1nc2c(s1)CN(C(=O)NCc1cccnc1)CC2` [Example 14, N^2-(2-aminophenyl)-N^5-(pyridin-3-ylmethyl)-6,7-dihydro[1,3]thiazolo[5,4-c]pyridine-2,5(4H)-dicarboxamide]: the IC50 with A549 NSCLC cells [1] is not below 0.2 µM. For the same compound, the concentration for a half-maximal effect (EC50) fell in the range of 150 to 15000 nM in assay [2] (setting [4]) and 251 to 15800 nM in assay [2] (setting [5]).
With `Cc1ccc(OCC(=O)N2CCc3nc(C(=O)Nc4ccccc4N)sc3C2)cc1` [Example 173, N-(2-aminophenyl)-5-[(4-methylphenoxy)acetyl]-4,5,6,7-tetrahydro[1,3]thiazolo[5,4-c]pyridine-2-carboxamide], in the assay on A549 NSCLC cells [1], the IC50 is not below 0.2 µM. For the same compound, the results for the EC50 in assay [2] (setting [4]) and in assay [2] (setting [5]) were 150 to 15000 nM and 251 to 15800 nM, respectively.
On to `Nc1ccccc1NC(=O)c1nc2c(s1)CN(S(=O)(=O)c1ccc(-c3ccccc3)cc1)CC2` [Example 152, N-(2-aminophenyl)-5-(biphenyl-4-ylsulfonyl)-4,5,6,7-tetrahydro[1,3]thiazolo[5,4-c]pyridine-2-carboxamide], for which the IC50 in the assay on A549 NSCLC cells [1] was not below 0.2 µM. Further, the EC50 in assay [2] (setting [4]) was in the range of 150 to 15000 nM; in assay [2] (setting [5]), 251 to 15800 nM.
Regarding `COc1ccc(NC(=O)N2CCc3nc(C(=O)Nc4ccccc4N)sc3C2)cc1OC` [Example 19, N^2-(2-aminophenyl)-N^5-(3,4-dimethoxyphenyl)-6,7-dihydro[1,3]thiazolo[5,4-c]pyridine-2,5(4H)-dicarboxamide], in the assay with A549 NSCLC cells [1], the IC50 is not below 0.2 µM. The EC50 in assay [2] (setting [4]) is 150 to 15000 nM; in assay [2] (setting [5]) it was 251 to 15800 nM.
For `COc1ccc(OC(=O)N2CCc3nc(C(=O)Nc4ccccc4N)sc3C2)cc1OC` [Example 186, 3,4-dimethoxyphenyl 2-[(2-aminophenyl)carbamoyl]-6,7-dihydro[1,3]thiazolo[5,4-c]pyridine-5(4H)-carboxylate] the same measures were not below 0.2 µM, 150 to 15000 nM and 251 to 15800 nM.
Take `COc1ccc(S(=O)(=O)N2CCc3nc(C(=O)Nc4ccccc4N)sc3C2)cc1` [Example 153, N-(2-aminophenyl)-5-[(4-methoxyphenyl)sulfonyl]-4,5,6,7-tetrahydro[1,3]thiazolo[5,4-c]pyridine-2-carboxamide]: the IC50 in the assay with A549 NSCLC cells [1] is not below 0.2 µM. The “concentration inducing arrest in G1, depletion of cells in the S-phase and reduction of cells in the G2/M-phase” value with A549 NSCLC cells [3] is “around 3 μM”. The EC50 is 150 to 15000 nM in assay [2] (setting [4]) and 251 to 15800 nM in assay [2] (setting [5]).
Turning to `CC(=O)N1CCc2nc(C(=O)Nc3ccccc3N)sc2C1` [Example 92, 5-acetyl-N-(2-aminophenyl)-4,5,6,7-tetrahydro[1,3]thiazolo[5,4-c]pyridine-2-carboxamide], in the assay on A549 NSCLC cells [1], the IC50 was not below 0.2 µM. For the same compound, the EC50 is 150 to 15000 nM in assay [2] (setting [4]) and 251 to 15800 nM in assay [2] (setting [5]).
With `N#CN=C(NCc1ccccc1)N1CCc2nc(C(=O)Nc3ccccc3N)sc2C1` [Example 122, N-(2-aminophenyl)-5-[(benzylamino)(cyanoimino)methyl]-4,5,6,7-tetrahydro[1,3]thiazolo[5,4-c]pyridine-2-carboxamide], in the assay with A549 NSCLC cells [1], the IC50 was not below 0.2 µM. Moreover, the EC50 fell in the range of 150 to 15000 nM in assay [2] (setting [4]) and 251 to 15800 nM in assay [2] (setting [5]).
In the case of `Cc1ccc(OC(=O)N2CCc3nc(C(=O)Nc4ccccc4N)sc3C2)cc1` [Example 182, 4-methylphenyl 2-[(2-aminophenyl)carbamoyl]-6,7-dihydro[1,3]thiazolo[5,4-c]pyridine-5(4H)-carboxylate], the IC50 in the assay on A549 NSCLC cells [1] is not below 0.2 µM. Besides, the “concentration inducing arrest in G1, depletion of cells in the S-phase and reduction of cells in the G2/M-phase” value in the assay with A549 NSCLC cells [3] was “around 3 μM”. Further, the EC50 in assay [2] (setting [4]) was 150 to 15000 nM; in assay [2] (setting [5]), 251 to 15800 nM.
For `Nc1ccccc1NC(=O)c1nc2c(s1)CN(c1ncccn1)CC2` [Example 192, N-(2-aminophenyl)-5-pyrimidin-2-yl-4,5,6,7-tetrahydro[1,3]thiazolo[5,4-c]pyridine-2-carboxamide], in the assay on A549 NSCLC cells [1], the IC50 was not below 0.2 µM. Moreover, the values for the EC50 in assay [2] (setting [4]) and in assay [2] (setting [5]) were 150 to 15000 nM and 251 to 15800 nM, respectively.

These data come from patent US8440830B2, “Tetrahydro-fused pyridines as histone deacetylase inhibitors” (4SC AG, priority 2007, dated 2013).
